Experiments:
Assay type in all cases: toxicity, cell-based
Fibroblast = assay: Incucyte cell viability with human fibroblast; settings: 10 µM, compound concentration 10 uM
HEK-293T = assay: Incucyte cell viability with HEK293T; settings: human, 10 µM, compound concentration 10 uM
U2OS = assay: Incucyte cell viability with U2OS; settings: human, 10 µM, compound concentration 10 uM
[1] = 0 h, replicate number 2, timepoint 0 hours
[2] = 6 h, replicate number 1, timepoint 6 hours
[3] = 12 h, replicate number 1, timepoint 12 hours
[4] = 12 h, replicate number 2, timepoint 12 hours
[5] = 18 h, replicate number 1, timepoint 18 hours
[6] = 18 h, replicate number 2, timepoint 18 hours
[7] = 24 h, replicate number 1, timepoint 24 hours
[8] = 24 h, replicate number 2, timepoint 24 hours
[9] = 6 h, replicate number 2, timepoint 6 hours
[10] = 0 h, replicate number 1, timepoint 0 hours
Also: unitless GR value; below 1 slowed growth and below 0 cell loss.

| SMILES | Growth Rate (Fibroblast; [2]) | Growth Rate (Fibroblast; [3]) | Growth Rate (Fibroblast; [4]) | Growth Rate (Fibroblast; [5]) | Growth Rate (Fibroblast; [6]) | Growth Rate (Fibroblast; [7]) | Growth Rate (Fibroblast; [8]) | Growth Rate (HEK-293T; [2]) | Growth Rate (HEK-293T; [3]) | Growth Rate (HEK-293T; [4]) | Growth Rate (HEK-293T; [5]) | Growth Rate (HEK-293T; [6]) | Growth Rate (HEK-293T; [7]) | Growth Rate (HEK-293T; [8]) | Growth Rate (U2OS; [10]) | Growth Rate (U2OS; [2]) | Growth Rate (U2OS; [3]) | Growth Rate (U2OS; [5]) | Growth Rate (U2OS; [7]) | Growth Rate (Fibroblast; [9]) | other results |
| --- | --- | --- | --- | --- | --- | --- | --- | --- | --- | --- | --- | --- | --- | --- | --- | --- | --- | --- | --- | --- | --- |
| O=C(NCCO)c1cccc(-c2cc(Nc3ccc(OC(F)(F)F)cc3)ncn2)c1 | -0.91 | -0.72 | 0.04 | -0.61 | 0.03 | -0.55 | 0.06 | -0.41 | -0.19 | -0.13 | 0.05 | 0.17 | 0.15 | 0.26 | -0.12 | 0.49 | 0.52 | 0.47 | 0.79 |  | Growth Rate (Fibroblast; [1]): 0.6; Growth Rate (HEK-293T; [9]): -0.4; Growth Rate (U2OS; [1]): 0.42; Growth Rate (U2OS; [9]): 1; Growth Rate (U2OS; [4]): 0.83; Growth Rate (U2OS; [6]): 0.99; Growth Rate (U2OS; [8]): 0.91 |
| COc1cc(/C=C/C(=O)NCCn2c(C)cc3ccccc32)cc(OC)c1OC | 0.79 | 0.87 | 0.39 | 0.66 | 0.71 | 0.67 | 0.73 | 0.24 | 0.61 | 0.51 | 0.69 | 0.55 | 0.75 | 0.76 | -0.71 | 0.34 | 0.62 | 0.51 | 0.75 | 0.39 | Growth Rate (Fibroblast; [10]): 0.86; Growth Rate (HEK-293T; [9]): 0.36; Growth Rate (U2OS; [1]): -0.39; Growth Rate (U2OS; [9]): 0.73 |
| C[C@H](N)Cn1ccc2cc(F)c(Cl)cc21.O=C(O)/C=C/C(=O)O | 0.43 | 0.49 | 0.81 | 0.6 | 0.9 | 0.6 | 0.79 | 0.52 | 0.55 |  | 0.67 |  | 0.66 |  | -0.71 | 0.36 | 0.57 | 0.92 | 0.91 | 0.72 | Growth Rate (U2OS; [1]): 0.24; Growth Rate (U2OS; [9]): 0.68 |
| OCCCNc1cc(-c2ccnc(Nc3cccc(Cl)c3)n2)ccn1 | -0.19 | -0.15 | -0.06 | -0.2 | -0.09 | -0.02 | -0.06 | -0.65 | -0.52 | -0.62 | -0.38 | -0.46 | -0.29 | -0.38 | -0.27 | 0.44 | 0.44 | 0.26 | 0.23 | 0.11 | Growth Rate (Fibroblast; [10]): -0.42; Growth Rate (Fibroblast; [1]): -0.55; Growth Rate (HEK-293T; [9]): -0.7; Growth Rate (U2OS; [1]): -0.28; Growth Rate (U2OS; [4]): 0.56; Growth Rate (U2OS; [6]): 0.36; Growth Rate (U2OS; [8]): 0.24 |
| Cc1cc(O)c(-c2ccc([C@@H](C)CN(C)C)cc2)c2c1[nH]c(=O)c1sccc12 | -0.87 | -0.63 | -0.4 | -0.6 | -0.3 | -0.36 | -0.25 | -0.8 | -0.64 | -0.63 | -0.48 | -0.52 | -0.37 | -0.4 | -0.17 | 0.74 | 0.65 | 0.13 | 0.16 | -0.66 | Growth Rate (HEK-293T; [9]): -0.77; Growth Rate (U2OS; [1]): 1; Growth Rate (U2OS; [9]): 0.66; Growth Rate (U2OS; [4]): 0.31; Growth Rate (U2OS; [6]): 0.18; Growth Rate (U2OS; [8]): 0.09 |
| CN(C)CCCOc1ccc(-c2cc(NCCCn3cccn3)nc(S(C)(=O)=O)n2)cc1 | 0.86 |  |  |  |  | 0.96 |  | 0.9 |  |  |  | 0.97 |  | 0.97 | 0.2 | 0.22 |  | 0.71 | 0.85 |  | Growth Rate (Fibroblast; [1]): 0.56; Growth Rate (U2OS; [6]): 0.82 |
| CNCCN1CCC(c2cc(CN(C)C(=O)c3cccc(Oc4ccccc4)c3)ccn2)CC1 | 0.73 | 0.83 |  | 0.55 |  | 0.43 |  | 0.74 | 0.76 | 0.86 | 0.98 | 0.92 | 1 | 0.81 | -0.2 |  | 0.88 | 0.96 | 0.37 | 0.98 | Growth Rate (Fibroblast; [10]): 0.7; Growth Rate (Fibroblast; [1]): 0.9; Growth Rate (U2OS; [1]): 0.56; Growth Rate (U2OS; [9]): 0.98; Growth Rate (U2OS; [4]): 0.99 |
| NC(=O)c1cccc(-c2cc(Nc3ccc(OC(F)(F)F)cc3)ncn2)c1 | -0.84 | -0.48 | 0.37 | -0.35 | 0.53 | -0.05 | 0.46 | -0.43 | 0.03 | 0.25 | 0.18 | 0.3 | 0.26 | 0.48 |  |  | 0.98 |  | 0.94 | 0.58 | Growth Rate (HEK-293T; [9]): 0.03; Growth Rate (U2OS; [6]): 0.93 |
| COc1cc(C(=O)N2CC[C@@H](O)[C@@H](N)C2)cc2nc(-c3cc4ccccc4n3CC3CC3)n(C)c12.Cl | -0.98 | -0.8 | -0.18 | -0.63 | -0.01 | -0.52 | 0.15 | 0.71 | 0.85 |  | 0.88 |  | 0.77 |  | -0.04 | 0.61 |  |  |  | -0.57 | Growth Rate (U2OS; [1]): 0.15; Growth Rate (U2OS; [4]): 0.98; Growth Rate (U2OS; [6]): 0.99 |
| CN(C)C/C=C/C(=O)Nc1ccc(C(=O)N2CCCC(Nc3ncc(Cl)c(-c4c[nH]c5ccccc45)n3)C2)cc1 (stereo not given) | -0.96 | -0.75 | -0.33 | -0.7 | -0.1 | -0.55 | -0.06 | -0.75 | -0.58 | -0.66 | -0.42 | -0.43 | -0.27 | -0.31 | -0.56 | 0.53 | 0.51 | 0.27 | 0.09 | -0.55 | Growth Rate (HEK-293T; [9]): -0.93; Growth Rate (U2OS; [1]): 0.12; Growth Rate (U2OS; [4]): 0.63; Growth Rate (U2OS; [6]): 0.26; Growth Rate (U2OS; [8]): 0.13 |
| Cc1ccccc1C(=O)Nc1ccc(C(=O)N2CCCC(N(C)C)c3ccccc32)cc1.Cl (stereo not given) | -0.99 | -0.85 | -0.38 | -0.63 | -0.1 | -0.44 | 0.07 | -0.55 | -0.32 | -0.03 | -0.11 | 0.08 | 0.1 | 0.22 | 0.36 | 0.05 | -0.03 | -0.06 | -0.11 | -0.65 | Growth Rate (HEK-293T; [9]): -0.44; Growth Rate (U2OS; [9]): -0.11; Growth Rate (U2OS; [4]): -0.22; Growth Rate (U2OS; [6]): -0.09; Growth Rate (U2OS; [8]): -0.08 |

From ChEMBL document CHEMBL5058564, “EUbOPEN Chemogenomics Library 2 (Incucyte)” (2022)
